Assay: storage stability of amorphous form (polymorphic form by x-ray powder diffraction)
Type: physicochemical
Details: amorphous form dried under vacuum at about 50° C. to 70° C.; ordinary stability conditions (75% RH at 40° C. or 60% RH at 25° C.); no change in polymorphic form by XRPD
Method: The obtained linagliptin may be dried under vacuum at about 50° C. to 70° C. for 6-12 hours to get amorphous form substantially free from residual solvents. Thus obtained amorphous linagliptin is stable under ordinary stability conditions at least for 3 months and doesn't change to crystalline form.
The stable amorphous form of linagliptin may be stored under nitrogen atmosphere and packed in a double polythene bag tied with a thread, keeping primary packing containing amorphous linagliptin inside a black color polyethylene bag containing oxygen busters and sealing it, placing above the double polyethylene bag inside a triple laminated bag optionally containing oxygen busters and sealing it, and placing the sealed triple laminated bag inside a closed high density polyethylene (HDPE) container and storing in controlled environment chamber at about 25° C. and/or 40° C.
The X-ray powder diffraction spectrum was measured under the following experimental conditions: • Instrument: X-Ray Diffractometer, D/Max-2200/PC Make: Rigaku, Japan. • X-Ray: Cu/40 kv/40 mA • Diverging: 10 • Scattering Slit: 10 • Receiving Slit: 0.15 mm • Monochromator RS: 0.8 mm • Counter: Scintillation Counter • Scan Mode: Continuous • Scan Speed: 3.0000/Min • Sampling Width: 0.020 • Scan Axes: Two Theta/Theta • Scan Range: 2.0000 to 40.0000 • Theta Offset: 0.0000

## CC#CCn1c(N2CCC[C@@H](N)C2)nc2c1c(=O)n(Cc1nc(C)c3ccccc3n1)c(=O)n2C [amorphous linagliptin, 8-[(R)-3-aminopiperidin-1-yl]-7-(but-2-yn-1-yl)-3-methyl-1-[(4-methyl-quinazolin-2-yl)methyl]-3,7-dihydro-1H-purine-2,6-dione]
  stable under ordinary stability conditions, doesn't change to crystalline form: ≥ 3 months

Reference: patent US9879011B2, “Amorphous form of linagliptin and process for preparation thereof” (CADILA HEALTHCARE LIMITED, priority 2012, dated 2018)
